Columns and labels:
S. mutans biofilms = experiment: Biofilm formation on hydroxyapatite disks (CFU in resuspended biofilm); type: cell-based; details: for %N Control: percentage of S. mutans CFU on the disk in control experiment; for N S.mutans (CFU/mL): resuspended biofilm from hydroxyapatite disks, 64h incubation
Protocol: Example ? 6. Anti-biofilm activity of individual substances selected from naringenin, guava leaf extract, and lysozyme, or the composition thereof, is assessed from the rate of biofilm formation on hydroxyapatite disks, with the use of the following procedure: • 1) Prepare the heart-brain broth (DM106D, Mast Group Ltd., U.K.) and Columbian agar supplemented with defibrinated blood (OOO "GEM" Cat. No BP-023) in accordance with the manufacturer's instruction • 2) All stages of preparation of the bacterial culture suspensions were similar to those described in Example 1. • 3) Prepare saliva, which is required for biofilm formation and provides the bacteria adhesion to the surface of hydroxyapatite disks. […] Centrifuge the collected saliva at 12 000 rpm for 30 minutes at 4°C. Harvest the supernatant into the clean tube and subject to pasteurization at 65°C for 30 minutes followed by one more centrifugation.
The efficacy of saliva pasteurization is assessed from direct inoculation on Columbian blood agar. The plates are incubated under aerobic and anaerobic conditions at 37°C for 72 hours. The saliva is considered sterile if no growth of bacterial and fungal colonies is observed within 72 hours of observation.
Store the saliva at temperature -80 °C before the use. • 4) To form the salivary film on the surface of hydroxyapatite disk put three sterile disks (sterilization by autoclaving at 132 °C for 20 min) in each of 9 Petri dishes 40 mm in diameter abd incubate in 3 mL of the pasteurized saliva at room temperature for 4 hours with gentle shaking on orbital shaker. Then remove the saliva and add 3 mL of nutritive medium containing 1.2 mL of heart-brain broth; 1.2 mL of pasteurized saliva; 0.6 mL of S. mutans suspension at concentration of 10^6 CFU/mL into the Petri dish. The formation of S. mutans biofilm on the disk surface is achieved at 37°C under the atmosphere of 5 % CO2 in the environment, with gentle shaking on orbital shaker for 16 hours. • 5) After 16-hour incubation remove old nutritive medium from the dishes and add a fresh portion of heart-brain broth containing S. mutans suspension and the pasteurized saliva. Add the active substances selected from naringenin, guava leaf extract and lysozyme or combination thereof to final concentration 0.1 or 1.0 mg/mL. Repeat the procedure of medium replacement twice daily within […] and 8 h after the first change. • 6) To remove the biofilm formed in the disk surface take the disks away from Petri dishes after the incubation for 2 days and rinse in the large volume of PBS (pH 7.2). Then place the disks into sterile Petri dishes with 3 mL of PBS (pH 7.2) and shake vigorously on the orbital shaker for 30 minutes. […]

S. mutans = details: naringenin at concentration 200 µg/mL; cited from earlier work
[1] = system: Streptococcus mutans No 22081; experiment: Growth of planktonic culture in liquid nutritive medium (CFU count after 5 h); type: cell-based; details: S. mutans planktonic culture; 1 mg/mL; 5 h incubation
Protocol: Example ? 3. Antibacterial activity of naringenin, guava leaf extract and lysozyme was assessed from the growth pattern of the reference strain Streptococcus mutans No 22081 (UNU Collection under I. I. Mechnikov Research Institute if Vaccines and sera) in liquid nutritive medium according to the procedure: • 1) Prepare the heart-brain broth (DM106D, Mast Group Ltd., U.K.) and Columbian agar supplemented with defibrinated blood (OOO "GEM" Cat. No BP-023) in accordance with the manufacturer's instruction. • 2) Using microbiological loop prepare the suspension (at concentration 1.5·10^8 CFU/mL) of 24 hour agar culture of S. mutans in the sterile buffered saline (BS) under visual control with McFarland standard 0.5. […] Prepare the composition of naringenin 0.33 mg/mL, lysozyme 0.33 mg/mL, and guava leaf extract 0.33 mg/mL. • 4) Put the plate with the samples into the incubator with 5% CO2 atmosphere, and incubate at 37°C for 5 h on shaking apparatus. • 5) After the 5 h incubation reinoculate the agar nutritive medium with the planktonic S. mutans culture to count CFU per 1 mL of medium. • 6) Perform optical density (OD) measurements using multimodal microplate reader at the wavelength 620 nm before the incubation (OD0) and then after the culture growth for 5 h ODt=5). […]

O=C1C[C@@H](c2ccc(O)cc2)Oc2cc(O)cc(O)c21 [Naringenin, naringenin]
%N Control (S. mutans biofilms; Csubstance 0.1 mg/mL): 66.7%
N S.mutans (CFU/mL) (S. mutans biofilms; Csubstance 0.1 mg/mL): 2.8·10^6 CFU/mL
%N Control (S. mutans biofilms; Csubstance 1.0 mg/mL): 50.0%
N S.mutans (CFU/mL) (S. mutans biofilms; Csubstance 1.0 mg/mL): 2.1·10^6 CFU/mL
biofilm formation (S. mutans): virtually completely inhibited
% of CFU obtained for control [1]: 4.8%
∑ CFU, mL [1]: 4.3x10^7 CFU, mL

From patent publication EP4458353A1, “ANTICARIOGENIC SYNERGETIC COMPOSITION FOR ORAL CARE” (SkyLab AG, priority 2023, dated 2024)
